These results are taken from US20250002507A1, “7,8-DIHYDRO-5H-1,6-NAPHTHYRIDINE DERIVATIVES AS POSITIVE ALLOSTERIC MODULATORS OF THE MUSCARINIC ACETYLCHOLINE RECEPTOR M4 FOR TREATING NEUROLOGICAL AND PSYCHIATRIC DISORDERS” (Vanderbilt University, priority 2021, published 2025).

This test concerns the target T1, Human M4 (Homo sapiens, UniProt P08173).
T1 construct: expressed in transfected cells
T1 sequence (P08173 1-479): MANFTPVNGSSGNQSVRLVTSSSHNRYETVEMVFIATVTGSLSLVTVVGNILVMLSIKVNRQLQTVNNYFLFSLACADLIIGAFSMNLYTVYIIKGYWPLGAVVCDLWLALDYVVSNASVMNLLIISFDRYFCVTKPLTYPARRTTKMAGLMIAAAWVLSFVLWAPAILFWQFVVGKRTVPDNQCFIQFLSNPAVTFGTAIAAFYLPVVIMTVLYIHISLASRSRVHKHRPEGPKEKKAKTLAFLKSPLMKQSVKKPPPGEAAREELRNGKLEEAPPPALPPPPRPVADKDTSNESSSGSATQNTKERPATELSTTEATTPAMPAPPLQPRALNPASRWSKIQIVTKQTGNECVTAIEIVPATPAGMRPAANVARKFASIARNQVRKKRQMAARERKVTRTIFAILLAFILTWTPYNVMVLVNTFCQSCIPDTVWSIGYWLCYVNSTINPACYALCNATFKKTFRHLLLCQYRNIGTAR
The test can be described thus: mAChR M4 cell-based functional assay (calcium flux, potentiation of EC20 acetylcholine response), hM4-Gqi5 CHO-K1 cells. Conditions: for Emax: CHO-K1, read-out: Emax (% ACh maximum at 30 μM); for Emax at 30 µM: CHO-K1, Human M4, % ACh maximum at 30 μM, read-out: Emax (% ACh maximum at 30 μM). The procedure, abridged: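 CHO-K1 cells stably expressing human M4 with chimeric Gqi5, loaded with Fluo-4 AM 50 min at 37 °C; calcium flux read by FDSS. 11-point 1:3 compound curves added, then EC20 acetylcholine at 144 s; potentiation of the EC20 response fitted by four-parameter logistic to give EC50 and Emax.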

Where [1] appears, read: Table 3, potentiation of EC20 acetylcholine response, calcium flux, CHO-K1 cells, read-out: Human M4 EC50.

Read-outs that look alike come from different tables or passages of the source.

What is called Emax is the maximal effect, on the per cent scale that the assay sets. Usually EC50 stands for the concentration giving half of the maximal effect.

Consider `Cc1cc2c(nc1C)CCN(c1nn3cnnc3c(C)c1C)C2` [Compound 167, 6-(7,8-dimethyl-[1,2,4]triazolo[4,3-b]pyridazin-6-yl)-2,3-dimethyl-5,6,7,8-tetrahydro-1,6-naphthyridine], for which the Emax amounted to 106%. Also, the EC50 under setting [1] turned out to be 188 nM.
Take `Cc1cnc2c(c1)CN(c1nn3cc(C(=O)NC4CC4)nc3cc1C)CC2` [Compound 168, N-cyclopropyl-7-methyl-6-(3-methyl-7,8-dihydro-1,6-naphthyridin-6(5H)-yl)imidazo[1,2-b]pyridazine-2-carboxamide]: the Emax at 30 µM (Table 3) is 54%. Also, the EC50 under setting [1] came to 3250 nM.
In the case of `Cc1cnc2c(c1)CN(c1nn3cc(C(=O)N4CCN(C)CC4)nc3cc1C)CC2` [Compound 169, (7-methyl-6-(3-methyl-7,8-dihydro-1,6-naphthyridin-6(5H)-yl)imidazo[1,2-b]pyridazin-2-yl)(4-methylpiperazin-1-yl)methanone], the Emax at 30 µM (Table 3) turned out to be 111%. The EC50 under setting [1] came out at 1180 nM.
Turning to `Cc1cnc2c(c1)CN(c1nn3cc(C(=O)N4CCCCC4)nc3cc1C)CC2` [Compound 170, (7-methyl-6-(3-methyl-7,8-dihydro-1,6-naphthyridin-6(5H)-yl)imidazo[1,2-b]pyridazin-2-yl)(piperidin-1-yl)methanone], the maximum response (Emax) at 30 µM (Table 3) amounted to 105%. Also, under setting [1], the EC50 worked out at 934 nM.
For `Cc1cnc2c(c1)CN(c1nn3cc(C(=O)N4CCCC4)nc3cc1C)CC2` [Compound 171, [7-Methyl-6-(3-methyl-7,8-dihydro-5H-1,6-naphthyridin-6-yl)imidazo[1,2-b]pyridazin-2-yl]-pyrrolidin-1-yl-methanone], under “Table 3”, the Emax at 30 µM was 107%. The EC50 under setting [1] was determined as 1040 nM.
For `Cc1c(N2CCc3ncc(-c4cccnc4C(F)(F)F)cc3C2)nn2cnnc2c1C` [Compound 172, 6-(7,8-dimethyl-[1,2,4]triazolo[4,3-b]pyridazin-6-yl)-3-(2-(trifluoromethyl)pyridin-3-yl)-5,6,7,8-tetrahydro-1,6-naphthyridine], in that order: 73% and 3530 nM.
For `COc1ncc(-c2cnc3c(c2)CN(c2nn4cnnc4c(C)c2C)CC3)cc1Cl` [Compound 173, 3-(5-chloro-6-methoxypyridin-3-yl)-6-(7,8-dimethyl-[1,2,4]triazolo[4,3-b]pyridazin-6-yl)-5,6,7,8-tetrahydro-1,6-naphthyridine], the Emax at 30 µM (Table 3) came out at 80%. Moreover, the EC50 under setting [1] was determined as 937 nM.
For `COc1nc(Cl)ccc1-c1cnc2c(c1)CN(c1nn3cnnc3c(C)c1C)CC2` [Compound 174, 3-(6-chloro-2-methoxypyridin-3-yl)-6-(7,8-dimethyl-[1,2,4]triazolo[4,3-b]pyridazin-6-yl)-5,6,7,8-tetrahydro-1,6-naphthyridine], in that order: 85% and 1070 nM.
On to `CCc1ccncc1-c1cnc2c(c1)CN(c1nn3cnnc3c(C)c1C)CC2` [Compound 175, 6-(7,8-dimethyl-[1,2,4]triazolo[4,3-b]pyridazin-6-yl)-3-(4-ethylpyridin-3-yl)-5,6,7,8-tetrahydro-1,6-naphthyridine], for which the maximal response (Emax) at 30 µM (Table 3) came out at 81%. For the same compound, the EC50 under setting [1] was found to be 155 nM.
In the case of `COc1ncc(-c2cnc3c(c2)CN(c2nn4cnnc4c(C)c2C)CC3)cc1F` [Compound 176, 6-(7,8-dimethyl-[1,2,4]triazolo[4,3-b]pyridazin-6-yl)-3-(5-fluoro-6-methoxypyridin-3-yl)-5,6,7,8-tetrahydro-1,6-naphthyridine], the EC50 came to 587 nM and the Emax came to 89%.
As to `Cc1c(N2CCc3ncc(-c4cnc(Cl)c(F)c4)cc3C2)nn2cnnc2c1C` [Compound 177, 3-(6-chloro-5-fluoropyridin-3-yl)-6-(7,8-dimethyl-[1,2,4]triazolo[4,3-b]pyridazin-6-yl)-5,6,7,8-tetrahydro-1,6-naphthyridine], the Emax at 30 µM (Table 3) is 85%. Under setting [1], the EC50 is 747 nM.
